US4417052A, “Phenyl-lower-alkyl piperidines and pyrrolidines” (Sterling Drug Inc., priority 1981, dated 1983)
≈ marks a conversion by molar mass, not a printed value. Read-outs that look alike come from different tables or passages of the source.

Legend:
[1] = system: carrageenin-induced foot edema; experiment: inhibition of carrageenin-induced foot edema test (C.E.); assay type: in vivo; details: oral, read-out: C.E. percent inhibition; for inhibition in vivo at 80 µmol/kg: dose 0.08 millimoles/kg; for inhibition in vivo at 324 µmol/kg: dose 0.324 millimoles/kg
[2] = system: acetylcholine-induced abdominal constriction; experiment: acetylcholine-induced abdominal constriction test (Ach); assay type: in vivo, mice; details: for ED50: Mus musculus, read-out: Ach ED50
Text: J. Pharmacol. Chemotherap. 32, 295 (1968); a modification of the anti-bradykinin test, which is also a primary analgesic screening procedure, described by Berkowitz et al., J. Pharmacol. Exp. Therap. 177, 500-508 (1971), Blane et al., J. Pharm. Pharmacol. 19, 367-373 (1967), Botha et al., Eur. J. Pharmacol. 6, 312-321 (1969) and Deffenu et al., J. Pharm. Pharmacol. 18, 135 (1966); the phenyl-p-quinone-induced writhing test, also a primary analgesic screening test, designed to measure the ability of a test agent to prevent phenyl-p-quinone-induced writhing in mice, described by Pearl and Harris, J. Pharmacol. Exptl. Therap. 154, 319-323 (1966); the rat tail flick radiant thermal heat analgesic (agonist) test described by D'Amour and Smith, J. Pharmacol. Exptl. Therap. 72, 74 (1941) as modified by Bass and VanderBrook, J. Am. Pharm. Assoc. Sci. Ed. 41, 569 (1956); and the phenazocine antagonist test, which is designed to measure the ability of a test agent to antagonize the effect of phenazocine in the above-indicated rat tail flick response test, described by Harris and Pierson, J. Pharmacol. Exptl. Therap. 143, 141 (1964).
The ED50 is the calculated Effective Dose in 50% of the test animals. The abbreviations s.c., p.o. and i.p. stand for subcutaneous, peroral and intraperitoneal routes of administration, respectively. The compounds are identified by the Example numbers above where their preparations are described.

[3] = system: bradykinin; experiment: anti-bradykinin test (BDK); assay type: in vivo
Text: (§1) The test procedures used to determine the analgesic activities of the compounds have been described in detail in the prior art and are as follows: the acetylcholine-induced abdominal constriction test, which is a primary analgesic screening test designed to measure the ability of a test agent to suppress acetylcholine-induced abdominal constriction in mice, described by Collier et al., Brit. J. Pharmacol. Chemotherap. 32, 295 (1968); a modification of the anti-bradykinin test, which is also a primary analgesic screening procedure, described by Berkowitz et al., J. Pharmacol. Exp. Therap. 177, 500-508 (1971), Blane et al., J. Pharm. Pharmacol. 19, 367-373 (1967), Botha et al., Eur. J. Pharmacol. 6, 312-321 (1969) and Deffenu et al., J. Pharm. Pharmacol. 18, 135 (1966); the phenyl-p-quinone-induced writhing test, also a primary analgesic screening test, designed to measure the ability of a test agent to prevent phenyl-p-quinone-induced writhing in mice, described by Pearl and Harris, J. Pharmacol. Exptl. Therap. 154, 319-323 (1966); the rat tail flick radiant thermal heat analgesic (agonist) test described by D'Amour and Smith, J. Pharmacol. Exptl. Therap. 72, 74 (1941) as modified by Bass and VanderBrook, J. Am. Pharm. Assoc. Sci. Ed. 41, 569 (1956); and the phenazocine antagonist test, which is designed to measure the ability of a test agent to antagonize the effect of phenazocine in the above-indicated rat tail flick response test, described by Harris and Pierson, J. Pharmacol. Exptl. Therap. 143, 141 (1964).
Data so obtained for the species found active in one or more of these tests are given in TABLE C below, results being expressed either in terms of the ED50 or, in the acetylcholine-induced writhing test, as the percent inhibition of writhing in the test animals at a given dose level. The ED50 is the calculated Effective Dose in 50% of the test animals. The abbreviations s.c., p.o. and i.p. stand for subcutaneous, peroral and intraperitoneal routes of administration, respectively. The compounds are identified by the Example numbers above where their preparations are described.

[4] = system: phenyl-p-quinone-induced writhing; experiment: phenyl-p-quinone-induced writhing test (PPQ); assay type: in vivo, mice; details: Mus musculus, po
Text: as §1, with “41, 569 (1956); and the phenazocine antagonist test, which is designed to measure the ability of a test agent to antagonize the effect of phenazocine in the above-indicated rat tail flick response test, described by Harris and Pierson, J. Pharmacol. Exptl. Therap. 143, 141 (1964).” left out

[5] = system: rat tail flick response; experiment: rat tail flick radiant thermal heat analgesic (agonist) test (T.F. Ag.); details: in vivo
Text: as §1, with “41, 569 (1956); and the phenazocine antagonist test, which is designed to measure the ability of a test agent to antagonize the effect of phenazocine in the above-indicated rat tail flick response test, described by Harris and Pierson, J. Pharmacol. Exptl. Therap. 143, 141 (1964).” left out

[6] = system: effect of phenazocine in the rat tail flick response; experiment: phenazocine antagonist test in the rat tail flick response (T.F. Antag.); details: in vivo
Text: as §1, with “41, 569 (1956); and the phenazocine antagonist test, which is designed to measure the ability of a test agent to antagonize the effect of phenazocine in the above-indicated rat tail flick response test, described by Harris and Pierson, J. Pharmacol. Exptl. Therap. 143, 141 (1964).” left out

[7] = antipyretic activity in the rat; assay type: in vivo
[8] = system: adjuvant-induced arthritis; experiment: inhibition of adjuvant-induced arthritis test (A.A.); assay type: in vivo; details: oral, read-out: A.A. percent inhibition
[9] = system: herpes simplex virus types 1 and 2; experiment: in vitro anti-viral activity against herpes simplex viruses types 1 and 2 (BSC cell line, monkey kidney); assay type: cell-based; details: read-out: MIC (Minimum Inhibitory Concentration)
Method: Monolayers of tissue cultures (BSC, cell line, monkey kidney) were infected with one hundred TCID50 (Tissue Culture Infectious Dose50) of infectious virus. After one hour of virus adsorption, fresh maintenance medium containing various concentrations of the test compounds was added to the monolayers. Cultures were then incubated at 36°-37° C., and after forty-eight and seventy-two hours, cultures were examined microscopically. […] In the presence of an active compound, cells grow normally similar to those in the tissue culture control. Simultaneously with the anti-viral evaluation, the toxicity of each compound was evaluated in separate cultures. Identical concentrations of the test compound were added to the tissue culture monolayers in the absence of virus. Those concentrations of the compound which show toxic effects on the cells were not considered in the anti-viral evaluation.

MIC [9] [µg/mL]	SMILES	inhibition in vivo at 80 µmol/kg [1] [%]	inhibition in vivo at 324 µmol/kg [1] [%]	ED50 ([2]; po) [mg/kg]	ED50 ([2]; sc) [mg/kg]	ED50 ([3]; ip) [mg/kg]	ED50 ([3]; po) [mg/kg]	ED50 [4] [mg/kg]	T.F. Ag. [5]	T.F. Antag. [6]	antipyretic activity ([7]; 3.25 mg./kg. p.o.)	antipyretic activity ([7]; 6.5 mg./kg. p.o.)	antipyretic activity ([7]; 13 mg./kg. p.o.)	antipyretic activity ([7]; 26 mg./kg. p.o.)	inhibition in vivo at 5 µmol/kg ([1]; dose 0.005 millimoles/kg) [%]	inhibition in vivo at 20 µmol/kg ([1]; dose 0.02 millimoles/kg) [%]	inhibition in vivo at 5 µmol/kg ([8]; dose 0.005 millimoles/kg) [%]	inhibition in vivo at 20 µmol/kg ([8]; dose 0.02 millimoles/kg) [%]	inhibition in vivo at 80 µmol/kg ([8]; dose 0.08 millimoles/kg) [%]	Ach percent inhibition of writhing ([2]; dose 75, s.c.) [%]
	CC(CN1CCOCC1)c1cccc(C(=O)c2ccccc2)c1.Cl.O (stereo not drawn) [7H (HCl), 4-[2-(3-benzoylphenyl)propyl]morpholine hydrochloride monohydrate]	68	73	8.4	14	82	13	132	Inac.	Inac.	not at 3.25 mg./kg.	Showed significant antipyretic activity	Showed significant antipyretic activity	Showed significant antipyretic activity						
	CC(CN1CCC2(CC1)OCCO2)c1cccc(C(=O)c2ccccc2)c1 (stereo not drawn) [Example 7G, 8-[2-(3-Benzoylphenyl)propyl]-1,4-dioxa-8-azaspiro[4,5]decane]			4.7			14	200	Inac.	Inac.	not at 6.5 or 3.25 mg./kg.	not at 6.5 or 3.25 mg./kg.	Showed significant antipyretic activity	Showed significant antipyretic activity						
6 (≈ 14.9 µM)	CC(CN1CCCCC1CC1CCCCC1)c1cccc(C(=O)c2ccccc2)c1 (stereo not drawn) [12, 14]	51	69	55			63								21	41	69	81	87	27
